Laboratory results from US7521182B2, “Selection system containing non-antibiotic resistance selection marker” (priority 2003, dated 2009).

Assays:
Type in all cases: cell-based, E. coli
AG1ΔaraD = experiment: Testing of arabinose sensitivity (M9 medium with glycerol, overnight culture, OD600); conditions: for AG1ΔaraD OD600: overnight at 37° C.
Protocol: (§1) The arabinose sensitivity was tested on the produced AG1ΔaraD and JM109ΔaraD strains. One colony of AG1ΔaraD and one colony of JM109ΔaraD were each inoculated into 2 ml LB. The cultures were grown for 8 hours, diluted 1:100 into M9 medium containing 0.2% glycerol, 25 μg/ml kanamycin, 0.01% thiamine (0.05% proline for JM109ΔaraD) and different concentrations of L-arabinose were added in the growth medium. The cultures were grown overnight at 37° C. in shaker incubator and OD600 was measured (Table 1).

JM109ΔaraD = experiment: as above; conditions: for JM109ΔaraD OD600: overnight at 37° C.
Protocol: as §1

ΔaraD strains = experiment: L-arabinose sensitivity in M9 and yeast extract medium (FIG. 19); conditions: 0,2% and 2% arabinose, overnight at 37° C.
Protocol: (§2) Additionally the L-arabinose sensitivity was tested in M9 and yeast extract medium with different glucose and arabinose concentrations (0.2% glucose, 0.2% arabinose, 2% arabinose). The cultures were incubated at 37° C. in a shaker incubator overnight. Then the OD600 was measured to quantitate the cell density.

[1] = test system: strains with intact araD gene; experiment: as above; conditions: 0,2% and 2% arabinose, overnight at 37° C.
Protocol: as §2

[2] = test system: host deficient of the araD gene; experiment: Amount of arabinose in the growth medium for selection
Excerpt: Any growth medium suitable for culturing E. coli cells can be used. For commercial production the growth medium will naturally be optimized in terms of the yield. Examples of suitable growth media are commercially available growth media, such as M9 and LB (available from several manufacturers, such as Fermentas, Lithuania). The amount of arabinose added in the growth medium is not critical but naturally arabinose should be present in an amount that is sufficient for the total culturing period. As low amount as 0.1% has been found sufficient for the selection. Typically arabinose is added to the medium in an amount of about 0.1% to about 2.0%, preferably in an amount of about 0.2% to about 1,0%, most preferably 0.2% to about 0.5%. However the effect of L-arabinose is observed at concentrations as low as 0.01% and L-arabinose can be added up to 5% in the growth medium. In a special embodiment, where L-arabinose is used both as a selecting agent and as a limited carbon source, 0.2% of L-arabinose is a suitable amount to be added into the growth medium.

[3] = test system: AG1ΔaraD, DH5alphaT1 ΔaraD and JM109ΔaraD; experiment: Arabinose sensitivity at lower concentrations of L-arabinose (FIG. 18)
Protocol: as §1
The arabinose sensitivity was further tested on AG1ΔaraD, DH5alphaT1 ΔaraD and JM109ΔaraD as above but using lower concentrations of L-arabinose.

DH5alphaT1 ΔaraD = experiment: Testing of arabinose sensitivity (M9 medium with 0.5% yeast extract, OD600)
Protocol: (§3) The arabinose sensitivity was tested on the E. coli DH5alphaT1 ΔaraDΔulaFΔsgbE and AG1ΔaraDΔulaFΔsgbE strains produced and compared to those of E. coli DH5alphaT1ΔaraD and AG1ΔaraD strains. One colony of each strain was inoculated into 2 ml of M9 medium containing 0.5% yeast extract, 25 μg/ml of kanamycin, 0.2% glucose only or 0.2% or 2% L-arabinose, respectively.

AG1 ΔaraD = experiment: as above
Protocol: as §3

AG1ΔaraD ΔulaFΔsgbE = experiment: as above
Protocol: as §3

[4] = test system: DH5alphaT1 ΔaraDΔulaF ΔsgbE; experiment: as above
Protocol: as §3

## O=C[C@H](O)[C@@H](O)[C@@H](O)CO [L-arabinose]
AG1ΔaraD; 0.1% L-arabinose
  AG1ΔaraD OD600: 0.03
AG1ΔaraD; 0.2% L-arabinose
  AG1ΔaraD OD600: 0.030
AG1ΔaraD; 0.5% L-arabinose
  AG1ΔaraD OD600: 0.030
AG1ΔaraD; 1% L-arabinose
  AG1ΔaraD OD600: 0.024
AG1ΔaraD; 2% L-arabinose
  AG1ΔaraD OD600: 0.017
AG1ΔaraD; Table 1
  amount of L-arabinose enough to inhibit the growth: 0.1%
JM109ΔaraD; 0.1% L-arabinose
  JM109ΔaraD OD600: 0.03
JM109ΔaraD; 0.2% L-arabinose
  JM109ΔaraD OD600: 0.026
JM109ΔaraD; 0.5% L-arabinose
  JM109ΔaraD OD600: 0.020
JM109ΔaraD; 1% L-arabinose
  JM109ΔaraD OD600: 0.025
JM109ΔaraD; 2% L-arabinose
  JM109ΔaraD OD600: 0.021
JM109ΔaraD; Table 1
  amount of L-arabinose enough to inhibit the growth: 0.1%
ΔaraD strains
  effect on growth of the ΔaraD strains: inhibited the growth
[1]
  effect on growth of strains with intact araD gene: not inhibited
[2]
  amount of arabinose found sufficient for the selection: 0.1%
  concentration at which the effect of L-arabinose is observed: 0.01%
[3]
  amount of L-arabinose enough to inhibit the growth: 0.0005%
DH5alphaT1 ΔaraD; 0.2% L-arabinose
  OD600 Glc + 0.2% L-arabinose: 0.95
DH5alphaT1 ΔaraD; 2% L-arabinose
  OD600 Glc + 2% L-arabinose: 0.35
AG1 ΔaraD; 0.2% L-arabinose
  OD600 Glc + 0.2% L-arabinose: 0.82
AG1 ΔaraD; 2% L-arabinose
  OD600 Glc + 2% L-arabinose: 0.26
AG1ΔaraD ΔulaFΔsgbE; 0.2% L-arabinose
  OD600 Glc + 0.2% L-arabinose: 0.82
AG1ΔaraD ΔulaFΔsgbE; 2% L-arabinose
  OD600 Glc + 2% L-arabinose: 0.35
[4]; 0.2% L-arabinose
  OD600 Glc + 0.2% L-arabinose: 0.75
[4]; 2% L-arabinose
  OD600 Glc + 2% L-arabinose: 0.28
